# From patent publication US5260309A, “4,5,6,11-tetrahydrobenzo [6,7] cycloocta [1,2-b]thiophen-6,11-imines and 6,11-dihydrobenzo [6,7] cycloocta [1,2-b] thiophen-6,11-imines” (Pfizer Inc., priority 1992, dated 1993)
# Tested on: P2 membranes from rat forebrain (3H-TCP binding)
# Assay: 3H-TCP binding assay (displacement of 3H-TCP from P2 membranes from rat forebrain)
# Settings: activity ratio (+)-enantiomer vs (-)-enantiomer
# Method: P2 membranes from rat forebrain were suspended in 5 mM tris(hydroxymethyl)aminomethane hydrochloride buffer (pH 7.4). A solution of the test compound in H2 O or DMSO/H2 O was added followed by a solution of ^3 H-TCP The mixture was incubated for 20 minutes at 30° C. and then injected onto a glass fiber filter. The filters were washed with cold buffer and placed in vials for subsequent liquid scintillation spectrometry. IC50 were calculated from the amount of tritium label retained on the filters.
row,Structure (SMILES),times as active as the (-)-enantiomer in the 3H-TCP binding assay
1,"CC12NC(CCc3ccsc31)c1ccccc12 (single isomer, unassigned; (+)) [(+)-enantiomer, (+)-11-methyl-4,5,6,11-tetrahydrobenzo[6,7]cycloocta[1,2-b]-thiophen-6,11-imine]",approximately eight

# Same assay, conditions: rat forebrain P2 membranes, pH 7.4, 20 minutes at 30° C.; upper bound stated for the group in micromolar
row,Structure (SMILES),IC50
1,"CC12NC(CCc3cc(Br)sc31)c1ccccc12 (stereo not drawn) [15 (free amine), 2-bromo-11-methyl-4,5,6,11-tetrahydrobenzo[6,7]cycloocta[1,2-b]thiophen-6,11-imine]",≤ 2000 nM
2,"c1ccc2c(c1)C1CCc3ccsc3C2N1 (stereo not drawn) [Example 4, 4,5,6,11-Tetrahydrobenzo[6,7]cycloocta[1,2-b]thiophen-6,11-imine]",≤ 2000 nM
3,"CSc1cc2c(s1)C1(C)NC(CC2)c2ccccc21 (stereo not drawn) [Example 14, 2-Methylthio-11-methyl-4,5,6,11-tetrahydrobenzo[6,7]-cycloocta[1,2-b]thiophen-6,11-imine]",≤ 2000 nM
4,"CC12NC(CCc3cc(Cl)sc31)c1ccccc12 (stereo not drawn) [Example 16, 2-Chloro-11-methyl-4,5,6,11-tetrahydrobenzo[6,7]-cycloocta[1,2-b]thiophen-6,11-imine]",≤ 2000 nM
5,"CC12NC(C=Cc3ccsc31)c1ccccc12 (stereo not drawn) [Example 18, 11-Methyl-6,11-dihydrobenzo[6,7]cycloocta[1,2-b]thiophen-6,11-imine]",≤ 2000 nM

# Same assay, conditions: rat forebrain P2 membranes, pH 7.4, 20 minutes at 30° C.; upper bound stated for the group in nanomolar
row,Structure (SMILES),IC50
1,"CC12NC(CCc3ccsc31)c1ccccc12 (stereo not drawn) [Example 9, 11-Methyl-4,5,6,11-tetrahydrobenzo[6,7]cycloocta-[1,2-b]thiophen-6,11-imine]",≤ 40 nM
2,"CC12NC(CCc3ccsc31)c1cc(F)ccc12 (stereo not drawn) [Example 22, 8-Fluoro-11-methyl-4,5,6,11-tetrahydrobenzo[6,7]-cycloocta[1,2-b]thiophen-6,11-imine]",≤ 40 nM
3,"Cc1ccc2c(c1)C1CCc3ccsc3C2(C)N1 (stereo not drawn) [Example 26, 8.11-Dimethyl-4,5,6,11-tetrahydrobenzo[6,7]cycloocta-[1,2-b]thiophen-6,11-imine]",≤ 40 nM
